This is an account of results in patent publication US9708359B2, “Pyrrolopyrimidine nucleosides and analogs thereof” (Chimerix, Inc., priority 2015, dated 2017).

Each structure is given as a SMILES string.

In general, CC50 refers to the concentration at which the toxic effect on the cells reaches its halfway point. Read a high CC50 as lower toxicity to the cells. Usually EC50 stands for the concentration that produces a half-maximal response.

Data set [1] is described as follows: Cytotoxicity in lymphocyte assays, BCBL-1 cells. The class given is cell-based. Particulars: human, parallel to HHV-8 assay. As for the experimental part:
(§1) Every antiviral assay included a parallel cytotoxicity assay with the same cells used for each virus, the same cell number, the same drug concentrations, and the same incubation times to provide the same drug exposure. To ensure that the cytotoxicity of all compounds could be compared directly, a standard neutral red uptake cytotoxicity assay for all compounds in confluent HFF cells with a 7 d incubation period was performed.
Cytotoxicity in Lymphocyte Assays:
Cell viability in all assays with lymphocytes was assessed with a luminescent Cell Viability Assay. Briefly, assay plates were incubated at ambient temperature for 30 min then luminescent reagent was added to each well and the plates were mixed to lyse the cells. Plates were then incubated for at ambient temperature and the luminescence was quantified on a luminometer. Standard methods were used to calculate drug concentrations that inhibited the proliferation of cells by 50% (CC50).
Cell viability in all assays with lymphocytes was assessed with the CellTiter-Glo Luminescent Cell Viability Assay (Promega). […] Plates were then incubated for an additional 10 min at ambient temperature and the luminescence was quantified on a luminometer. […]

Data set [2] concerns murine norovirus (MNV) CR3. Description: Study No. 2: efficacy against Murine Norovirus infection in mice. The class given is in vivo, BALB/c mice. To be noted: twice daily 300 mg/kg starting 2 days prior to infection, 10^4 PFU. As for the experimental part:
Study No. 2 evaluated the efficacy of twice-daily dosing of Compound 1 at 150 mg/kg or 300 mg/kg, initiated prior to infection of mice with 10^4 pfu of MNV CR3. A control group of mice treated with vehicle was also included. The 150 mg/kg dose was started either 2 days (39 hours) prior to inoculation, 1 day (15 hours) prior to inoculation, or on the day of (3 hours prior to) inoculation; the 300 mg/kg dose was started 2 days (39 hours) prior to infection.
This study tested the ability of Compound 1 to protect mice from or reduce murine norovirus infection. Compound was delivered twice daily at indicated doses via oral gavage starting 2 days prior to inoculation, 1 day prior to inoculation or at time of inoculation. A control group of mice treated with vehicle only was also included. Mice were infected with 10^4 PFU of murine norovirus by pipetting virus into mouth 3 hours after the Day 0 dose. All samples were titered by plaque assay.
For both studies, compound was delivered via oral gavage at the indicated doses and times prior to infection. Mice were infected with murine norovirus CR3 by pipetting virus into mouth 3 hours after the first day 0 dose of Compound 1 was given. Following infection, compound was administered twice daily through day 3 post-infection.
The mice used were ˜20 gram, 8-12 week old female BALB/c mice in groups of 5. […]

The test system of a further data set is SARS. Description: organism not typed. The class given is cell-based, SARS CoV. To be noted: Vero 76.
Another data set deals with EBV. Nature of the data set: DNA quantitation assay for EBV. The class given is cell-based, Epstein-Barr virus. Particulars: human gammaherpesvirus 4, Akata cells. As for the experimental part:
DNA Quantitation Assays for EBV and HHV-6B:
Assays for EBV were performed in Akata cells that were induced to undergo a lytic infection with goat anti-human IgG antibody by standard methods. Experimental compounds were diluted in plates. Akata cells were added to the plates and incubated. For HHV-6, compounds were serially diluted then uninfected HSB-2 or Molt-3 cells were added to each well. Infection was initiated by adding HHV-6A infected HSB-2 cells, or HHV-6B infected Molt-3 cells, and incubated for 7 d at 37° C. For all assays, denaturation buffer was added to each well to denature the DNA and an aliquot was aspirated through a nylon membrane. The membranes were then allowed to dry before equilibration in DIG. Specific digoxigenin (DIG)-labeled probes were prepared for each virus according to the manufacturer's protocol. Detection of specifically bound DIG probe was performed with anti-DIG antibody using the manufacturer's protocol. An image of the photographic film was captured and quantified and compound concentrations sufficient to reduce the accumulation of viral DNA by 50% (EC50), were interpolated from the experimental data.
Assays for EBV were performed in Akata cells that were induced to undergo a lytic infection with 50 μg/mL of a goat anti-human IgG antibody by standard methods. […]

The nature of data set [3]: Parallel cytotoxicity assay in MEF cells. Particulars: mouse, parallel to MCMV assay. The format is cell-based. As for the experimental part: as §1

With `Cc1nc(N)c2c(C(N)=O)cn([C@@H]3O[C@H](CO)[C@@H](O)[C@H]3O)c2n1` [Compound 1, 4-amino-7-((2R,3R,4S,5R)-3,4-dihydroxy-5-(hydroxymethyl)tetrahydrofuran-2-yl)-2-methyl-7H-pyrrolo[2,3-d]pyrimidine-5-carboxamide], the CC50 in data set [1] was 46.8 µM; in data set [3], over 100 µM. Also, in data set [2], the “murine norovirus titer in tissue and feces” value was “significantly reduces murine norovirus titer both in tissue and feces”. The EC50 in the data set with SARS turned out to be 37 µM; with EBV it was 7.15 µM.
